Structures can show the parent of a compound that is named as a salt.
Experiments:
brain dopamine = brain dopamine concentration by ELISA; type: in vivo, Male Wistar rats; conditions: i.p., 30 min after injection; fluoxetine 10 mg/kg, desipramine 50 mg/kg, Raphanus extract up to 256 mg/kg (most potent)
Method: (§1) Male Wistar rats (250-300 g, Amman-Jordan) were used throughout the study (8 rats for each experiment). Animals were housed in groups of 4/cage in a 12/12 h light-cycle (lights on at 07.00 a.m.), with ad-lib food and water available. The animals were randomly allocated to different groups of the experiment. All experiments were conducted in accordance with standard ethical guidelines and approved by the local ethical Committee University of Medical Committee on the Use and Care of Animals, 81/021, Jul. 10, 2011 (Petra University, Amman, Jordan)).
(§2) Fluoxetine hydrochloride [N-methyl-3-[(4-trifluoromethyl) phenoxy]-3-phenylpropylamine hydrochloride] and desipramine hydrochloride [10-11-dihydro-N-methyl-5H-dibenz (Z) [b, f] azepine-5-propanamine hydrochloride] (TOCRIS Bioscience, UK) were dissolved in sterile saline and administered intraperitoneally at a concentration of 1 ml/kg; the extract was prepared immediately before use. The control groups were administered saline.
(§3) The Raphanus sativus extract used was prepared in Jordan. To prepare the extract, 100 g of dried and milled […] was extracted with 1000 ml distilled water by maceration. […] The extract was dissolved in normal saline and immediately administered to the animals. […]

brain serotonin = brain serotonin concentration by ELISA; type: in vivo, Male Wistar rats; conditions: i.p., 30 min after injection; fluoxetine 10 mg/kg, desipramine 50 mg/kg, Raphanus extract 2-256 mg/kg; vs saline
Method: as §1, §2, §3

PTZ-induced convulsions = conditions: mice, i.p.; safranal 0.15 and 0.35 ml/kg body weight, crocin 22 mg/kg; cited from earlier work
[1] = test system: morphine-induced place preference; conditions: i.p.; extract 10, 50 and 100 mg/kg, safranal 1, 5 and 10 mg/kg; cited from earlier work

With `CNCCC(Oc1ccc(C(F)(F)F)cc1)c1ccccc1` (stereo not shown) [fluoxetine, N-methyl-3-[(4-trifluoromethyl)phenoxy]-3-phenylpropylamine hydrochloride] the “dopamine concentration in the brain” value (brain dopamine) was “can increase dopamine concentration in the brain” and the brain serotonin levels (brain serotonin) was “can increase brain serotonin levels significantly”.

In the case of `CC(/C=C/C=C(\C)C(=O)O[C@@H]1O[C@H](CO[C@@H]2O[C@H](CO)[C@@H](O)[C@H](O)[C@H]2O)[C@@H](O)[C@H](O)[C@H]1O)=C\C=C\C=C(C)\C=C\C=C(/C)C(=O)O[C@@H]1O[C@H](CO[C@@H]2O[C@H](CO)[C@@H](O)[C@H](O)[C@H]2O)[C@@H](O)[C@H](O)[C@H]1O` [Crocin, crocin], the anticonvulsant activity (PTZ-induced convulsions) is listed as “did not show anticonvulsant activity”.

For `CC1=C(C=O)C(C)(C)CC=C1` [Safranal, safranal], the “acquisition and expression of morphine CPP” value [1] is given as “The same results were obtained” and the anticonvulsant activity (PTZ-induced convulsions) is given as “reduced the seizure duration, delayed the onset of tonic convulsions, and protected mice from death”.

With `CNCCCN1c2ccccc2CCc2ccccc21` [desipramine, 10-11-dihydro-N-methyl-5H-dibenz (Z) [b, f] azepine-5-propanamine hydrochloride] the “dopamine concentration in the brain” value (brain dopamine) was “can increase dopamine concentration in the brain” and the brain serotonin levels (brain serotonin) was “neither desipramine nor Raphanus extract can increase brain serotonin levels”.

— patent US9821018B2, “Composition comprising Raphanus, Theobroma and Passiflora for treating opioid and alcohol abuse” (priority 2012, dated 2017)
